Assay results reported in patent publication US20150164762A1, “USE OF ETHANOLAMINE PHOSPHATE” (priority 2012, published 2015).

Tested on: BEAS-2B
Assay: Comprehensive gene expression analysis with Whole Human Genome DNA microarray after EP treatment
Assay type: cell-based
Description: Cells of the established normal human airway epithelial cell line BEAS-2B were used in the experiment. These cells were expansively cultured in 10% FBS RPMI-1640, and seeded at a density of 1×10^5/cm^2 on a 24-well plate. After 24 hours 0.1% FBS RPMI-1640 was substituted, and EP was administered to a final concentration of 0 or 1 mM (n=4). After 24 hours, the cells were used as the DNA microarray samples. RNA was extracted using a QIAGEN RNeasy Mini Kit. The DNA microarray test was performed using a Whole Human Genome DNA microarray 4×44K (Agilent), and the necessary labeling reagents and the like for the DNA microarray test were all from Agilent. The DNA microarray test data were analyzed statistically with GeneSpring (Agilent) dedicated analysis software, and gene function analysis (Gene Ontology (GO) analysis) was performed based on differential expression. The purpose of the GO analysis is to determine stochastically the degree to which gene sets with statistically significant differential expression correspond to known functional classification gene sets. […] The p-value is calculated according to the following formula.

[1] = probe A_23_P92499, 1 mM EP, 24 h
[2] = probe A_23_P94754, NM_005118, EP vs control
[3] = probe A_23_P94754, 1 mM EP, 24 h
[4] = probe A_23_P104798, NM_001562, EP vs control
[5] = probe A_23_P104881, 1 mM EP, 24 h
[6] = probe A_23_P105138, NM_001752, EP vs control
[7] = probe A_23_P105138, 1 mM EP, 24 h
[8] = probe A_23_P105803, 1 mM EP, 24 h
[9] = probe A_23_P110052, 1 mM EP, 24 h
[10] = probe A_23_P110151, 1 mM EP, 24 h
[11] = probe A_23_P114662, NM_001889, EP vs control
[12] = probe A_23_P115286, 1 mM EP, 24 h
[13] = probe A_23_P118061, 1 mM EP, 24 h
[14] = probe A_23_P118174, 1 mM EP, 24 h
[15] = probe A_23_P122052, NM_001008397, EP vs control
[16] = probe A_23_P122216, NM_002317, EP vs control
[17] = probe A_23_P122216, 1 mM EP, 24 h
[18] = probe A_23_P122775, NM_032730, EP vs control
[19] = probe A_23_P126844, 1 mM EP, 24 h
[20] = probe A_23_P127322, NM_018055, EP vs control
[21] = probe A_23_P127406, NM_018039, EP vs control
[22] = probe A_23_P128050, 1 mM EP, 24 h
[23] = probe A_23_P128215, 1 mM EP, 24 h
[24] = probe A_23_P128230, 1 mM EP, 24 h
[25] = probe A_23_P129313, NM_001159508, EP vs control
[26] = probe A_23_P131588, NM_014482, EP vs control
[27] = probe A_23_P132388, NM_005138, EP vs control
[28] = probe A_23_P134925, 1 mM EP, 24 h
[29] = probe A_23_P135024, 1 mM EP, 24 h
[30] = probe A_23_P135248, NM_006664, EP vs control
[31] = probe A_23_P136116, NM_001004320, EP vs control
[32] = probe A_23_P136493, NM_013962, EP vs control
[33] = probe A_23_P138635, 1 mM EP, 24 h
[34] = probe A_23_P143242, 1 mM EP, 24 h
[35] = probe A_23_P145357, 1 mM EP, 24 h
[36] = probe A_23_P146644, 1 mM EP, 24 h

NCCOP(=O)(O)O [EP, Ethanolamine phosphate]
CIDEC expression log2 [ratio] (probe A_23_P92025, 1 mM EP, 24 h): −0.754
TLR2 expression R*: Ratio to control [1]: 0.632 times
TLR2 expression log2 [ratio] [1]: −0.662
TNFSF15 gene expression, R* ratio to control [2]: 0.399 times
TNFSF15 gene expression, log2 [ratio] [2]: −1.327
TNFSF15 expression R*: Ratio to control [3]: 0.399 times
TNFSF15 expression log2 [ratio] [3]: −1.327
IL18 gene expression, R* ratio to control [4]: 0.641 times
IL18 gene expression, log2 [ratio] [4]: −0.641
ROBO4 expression R*: Ratio to control [5]: 1.785 times
ROBO4 expression log2 [ratio] [5]: 0.836
CAT gene expression, R* ratio to control [6]: 1.505 times
CAT gene expression, log2 [ratio] [6]: 0.589
CAT expression R*: Ratio to control [7]: 1.505 times
CAT expression log2 [ratio] [7]: 0.589
FGF9 expression R*: Ratio to control [8]: 1.606 times
FGF9 expression log2 [ratio] [8]: 0.684
FOXL2 expression R*: Ratio to control [9]: 0.352 times
FOXL2 expression log2 [ratio] [9]: −1.504
ARHGAP24 expression R*: Ratio to control [10]: 1.670 times
ARHGAP24 expression log2 [ratio] [10]: 0.740
CRYZ gene expression, R* ratio to control [11]: 1.632 times
CRYZ gene expression, log2 [ratio] [11]: 0.707
BCL10 expression R*: Ratio to control [12]: 0.542 times
BCL10 expression log2 [ratio] [12]: −0.883
CKLF expression R*: Ratio to control [13]: 1.501 times
CKLF expression log2 [ratio] [13]: 0.586
PLK1 expression R*: Ratio to control [14]: 2.447 times
PLK1 expression log2 [ratio] [14]: 1.291
GPX8 gene expression, R* ratio to control [15]: 1.413 times
GPX8 gene expression, log2 [ratio] [15]: 0.499
LOX gene expression, R* ratio to control [16]: 1.637 times
LOX gene expression, log2 [ratio] [16]: 0.711
LOX expression R*: Ratio to control [17]: 1.637 times
LOX expression log2 [ratio] [17]: 0.711
RTN4IP1 gene expression, R* ratio to control [18]: 1.436 times
RTN4IP1 gene expression, log2 [ratio] [18]: 0.522
TNFRSF25 expression R*: Ratio to control [19]: 0.532 times
TNFRSF25 expression log2 [ratio] [19]: −0.909
NODAL gene expression, R* ratio to control [20]: 0.450 times
NODAL gene expression, log2 [ratio] [20]: −1.154
KDM4D gene expression, R* ratio to control [21]: 1.448 times
KDM4D gene expression, log2 [ratio] [21]: 0.534
BCL2L14 expression R*: Ratio to control [22]: 0.594 times
BCL2L14 expression log2 [ratio] [22]: −0.751
SOCS2 expression R*: Ratio to control [23]: 1.720 times
SOCS2 expression log2 [ratio] [23]: 0.783
NR4A1 expression R: Ratio to control [24]: 0.302 times
NR4A1 expression log2 [ratio] [24]: −1.727
IVD gene expression, R* ratio to control [25]: 1.473 times
IVD gene expression, log2 [ratio] [25]: 0.559
BMP10 gene expression, R* ratio to control [26]: 0.625 times
BMP10 gene expression, log2 [ratio] [26]: −0.678
SCO2 gene expression, R* ratio to control [27]: 1.495 times
SCO2 gene expression, log2 [ratio] [27]: 0.580
BNIP3L expression R*: Ratio to control [28]: 0.633 times
BNIP3L expression log2 [ratio] [28]: −0.661
ARHGEF6 expression R*: Ratio to control [29]: 0.270 times
ARHGEF6 expression log2 [ratio] [29]: −1.889
CCL27 gene expression, R* ratio to control [30]: 0.556 times
CCL27 gene expression, log2 [ratio] [30]: −0.846
TMEM195 gene expression, R* ratio to control [31]: 1.962 times
TMEM195 gene expression, log2 [ratio] [31]: 0.972
NRG1 gene expression, R* ratio to control [32]: 0.646 times
NRG1 gene expression, log2 [ratio] [32]: −0.830
BNIP3 expression R*: Ratio to control [33]: 0.374 times
BNIP3 expression log2 [ratio] [33]: −1.418
CEBPB expression R*: Ratio to control [34]: 0.617 times
CEBPB expression log2 [ratio] [34]: −0.697
BAK1 expression R*: Ratio to control [35]: 0.402 times
BAK1 expression log2 [ratio] [35]: −1.313
ANXA2 expression R*: Ratio to control [36]: 1.673 times
ANXA2 expression log2 [ratio] [36]: 0.742
